Melting point data for 85 compounds are collected here from a melting point compilation (Tetko et al.; mined from patent text by program, amines drawn as free bases though some values may be those of a salt).

Molecules are shown by their SMILES. Where only a bound is given, the exact number is not on record here.

The melting point is the temperature of the solid-liquid transition. In turn, `O=[N+]([O-])c1ccccc1OC1OC(COP(=O)(O)O)C(O)C(O)C1O` (stereo not given) displayed a melting point of 181 to 183 °C.
For `C1=CC(n2nc(-c3cccc4ccccc34)cc2-c2ccccc2)(n2nc(-c3cccc4ccccc34)cc2-c2ccccc2)CC=C1c1ccccc1` the value was 264 °C; for `COC(=O)c1nc(Cl)c(F)c(N)c1/C=C/Cl`, 128 to 130 °C.
The compound `CCN(c1ccc([N+](=O)[O-])cc1C#N)S(=O)(=O)c1ccc(C)cc1` had a melting point of 135 to 136 °C.
For `COc1ccc(-c2nc(C(F)(F)F)c[nH]2)cc1OC1CCCC1` the value was 157 to 159 °C; for `CCOC(=O)c1csc(-c2ccc3cc4c(cc3c2)C(C)(C)CCC4(C)C)c1`, 107 to 108 °C; for `C/C(CCN1CCCC1c1ccc(Cl)c(Cl)c1)=N\O` (stereo not given), 145 to 147 °C.
For `NC1=NS(=O)N=C1NCCCN(Cc1cccs1)c1ccccn1` (stereo not given) the value was 169 to 171 °C; for `O=[N+]([O-])c1cc(Cl)cnc1Oc1ccc(O)cc1`, 125 to 126 °C; for `CC1(C)Oc2ccc(Br)cc2C(n2ccccc2=O)=C1CBr`, 175 °C.
For `OC(CCN1CCN(c2ccc(F)cc2)CC1)COc1ccccc1` (stereo not given) the value was 97 to 99 °C; for `Cc1cc2c(cc1C)-n1ccc(=O)nc1CC(c1ccc(-n3c(C)nc4cnccc43)cc1)=N2`, 192 to 194 °C; for `NC(=S)N(O)[C@H]1C[C@@H](c2ccc(F)cc2)C1`, 156 to 158 °C.
The compound `Cn1ncnc1COc1nn2c(-c3ccccc3)nnc2cc1C1CCC1` yielded a melting point of 228 °C.
Regarding `COCC1CN(c2ccc(C3CCC4(CC3)OCCO4)nc2)C(=O)O1` (racemic), the melting point was 93 to 94 °C.
As for `COc1cc2c(cc1OC)CC(NCC(=O)O)C2`, the figure is 250 °C.
In turn, `Cc1c(C)c2c(c(C)c1N)CC(C)(CN1CCC(Cc3ccccc3)CC1)O2` (stereo not given) yielded a melting point of 71 to 73 °C.
As for `CC(=O)Nc1c(C(=O)c2nccn2C)[nH]c2cc(Cl)ccc12`, the figure is 205 to 207 °C; as for `COc1ccc([C@@H]2Sc3ccccc3N(CCN(C)C)C(=O)[C@@H]2OC(=O)c2cc(Cl)ccc2[N+](=O)[O-])cc1`, 159 to 160 °C.
Turning to `O=C(Nc1ccc2nc(CN3CCCCC3)ccc2c1)c1ccc(-c2ccc(Cl)cc2)cc1`, the melting point fell in the range of 211 to 213 °C.
For `COc1ccc(S(=O)(=O)N(CC(N)=O)c2ccc(Cl)cc2C(O)c2c(Cl)cccc2Cl)cc1OC` (stereo not given) the value was 128 °C.
As for `CCOC(=O)/C(F)=C/c1ccc(Br)cc1`, the figure is 59 to 61 °C; as for `COC(=O)C1=C(C)NC(c2ncsc2Cl)=NC1c1ccc(F)cc1` (stereo not given), 118 to 122 °C.
For `O=C(NCc1ccccn1)Nc1cc(N2C(=O)C3(CCCC3)c3ccccc32)ccn1` the value was 135 °C; for `COC(=O)c1cc(Cl)cc(O)c1O`, 102 °C.
The compound `CCN1c2ncccc2C(=O)Nc2c(C)cc(N3CCC(O)C3)nc21` (stereo not given) yielded a melting point of 131 to 134 °C.
Compound `CC(=O)NC[C@H]1CN(c2ccc(N3C=CS(=O)(=O)CC3)c(F)c2)C(=O)O1` registered a melting point of 193 to 194 °C.
As for `O=C(N[C@@H](Cc1ccccc1)[C@H]1CO1)OCc1ccccc1`, the figure is 102 to 103 °C.
For `Cc1cc(C)cc(-n2c(C=CC3CC(O)CC(O)O3)c(C(C)C)c3ccccc3c2=O)c1` (mixture of isomers) the value was 180 to 182 °C; for `O=C1NCNC12CCCc1ccccc12` (stereo not given), 181 to 183 °C.
As for `O=[N+]([O-])c1ccc2[nH]cc(Cc3cccnc3)c2c1`, the figure is 154 to 156 °C; as for `CC(=O)c1ccc(O)c(CCCc2ccccc2)c1O`, 120 to 122 °C.
Regarding `CCCSc1nc(NC2CC2c2ccccc2)c2nnn(C3CC(C(=O)NC)C(O)C3O)c2n1` (stereo not given), the melting point is 165 to 166 °C.
For `Cc1c(C)c(N2CCN(C(=O)OC(C)(C)C)CC2)c(C)c2c1OC(C)(C)C2N1CCCCC1` (stereo not given) the value was 167 to 168 °C; for `COC(=O)c1cn(-c2c(Cl)cc(Cl)cc2Cl)nc1C(F)(F)F`, 107 to 108 °C; for `CCN1C(=O)C(C)=C2C[C@@]3(C)C(=C[C@@H](OC)[C@H](O)[C@@H]3C)C=C21`, 151 to 154 °C.
Turning to `CSCc1cnc(Cl)nc1`, the melting point was 56 to 57 °C.
As for `Cc1nnc(-c2ccc3ncn(-c4cccc(OC(F)(F)F)c4)c3c2)o1`, the figure is 153 to 154 °C.
For `COC(=O)C(C)C1CCC2C3CC=C4CC(OC(C)=O)CCC4(C)C3CCC12C` (stereo not given) the value was 140 to 142 °C; for `Cc1cc(COc2ccc(S(=O)(=O)NC[C@@H](C(=O)NO)N3CCN(Cc4ccc(C(F)(F)F)cc4)CC3)cc2)c2ccccc2n1`, 148 °C.
As for `Cc1cccc(C)c1NC(=O)c1ccc(Cl)nc1`, the figure is 165 to 166 °C; as for `Cc1c(NC(=O)c2ccc(-c3ccc(F)cc3)cc2)ccc2cc(CN3CCC(c4ccccc4)CC3)cnc12`, 171 to 172 °C; as for `C=C(c1ccc(C(=O)OC)cc1)c1ccc2c(c1)C(C)(C)CCC2(C)C`, 117 to 118 °C.
Turning to `CC(=O)c1nc2cccc(Oc3ccccc3)c2cc1OCc1ccccc1`, the melting point is 116 to 118 °C.
As for `CCOC(=O)CCCCc1cn(C(c2ccccc2)(c2ccccc2)c2ccccc2)cn1`, the figure is 84 to 86 °C; as for `COC1(C2=NCCN2)COc2c(F)cccc2O1` (stereo not given), over 260 °C.
For `CC(C)c1cc2cc(O)ccc2c(Oc2ccc(/C=C/C(=O)O)cc2)c1-c1ccccc1` the value was 198 to 199 °C; for `COc1cc(OC)nc(NC(=O)NS(=O)(=O)Oc2ccccc2)n1`, 136 to 139 °C.
Turning to `CCOC(=O)c1cnn2c(-c3cccc(NC(=O)C4CCC4)c3)ccnc12`, the melting point lay within 123 to 125 °C.
For `N/N=C/c1ccc(-c2ncn(-c3ccc(OC(F)(F)F)cc3)n2)cc1` the value was 222 to 226 °C; for `COc1cc2c3ccc(OC)c(OC)c3n(Cc3ccccc3)c2cc1OC`, 174 to 175 °C.
For `CN(C(=S)NC(=O)c1ccccc1)c1ccc(-c2ncn(-c3ccc(OC(F)(F)F)cc3)n2)cc1` the value was 166 to 169 °C.
As for `O=C(O)CCc1cn(Cc2ccc(OCc3ccc(-c4ccccc4)cn3)cc2)nc1-c1ccccc1`, the figure is 149 to 150 °C; as for `Cc1c(C(=O)Nc2ccc(N3CCC(O)CC3)c(C#N)c2)cnn1-c1ccc(Cl)cc1`, 247 °C; as for `COc1ccc2c(c1)CC[C@@H](Br)[C@@H]2O` (relative stereo), 80 to 82 °C.
Consider `Cn1c(C(F)(F)F)cc(=O)n(-c2cc(Oc3ccccc3OCC(=O)OC(C)(C)C)c(Cl)cc2F)c1=O`, for which the melting point came to 55.6 °C.
Compound `CC(C)(C)OC(=O)N1CCS(=O)(=O)C1` displayed a melting point of 106 to 107 °C.
The compound `Cc1nc2ccc(-c3ccc(OCC4(NC(=O)C5CC5)COC4)cc3)nn2c1-c1cnc(N)c(C(F)(F)F)c1` yielded a melting point of 191 to 193 °C.
Regarding `COc1ccc(-n2nc(CCCO)c(Cl)c2-c2ccc(Cl)cc2)cc1`, the melting point lay within 113 to 115 °C.
`CCOC(=O)C(=C1CCCN1C)c1ccc([N+](=O)[O-])cc1`: the melting point lay in the range of 82 to 83 °C.
Compound `O=C(O)COc1cccc2cc(COCC(c3ccccc3)c3ccccc3)oc12` showed a melting point of 141 to 142 °C.
In the case of `O=C(O)C1Cc2c(c(Cl)cc3c(-c4cccs4)noc23)O1` (stereo not given), the melting point lay within 249 to 251 °C.
As for `CC1(C)CC(S(=O)(=O)Cc2c(C(F)(F)F)nn3c2OCCC3)=NO1`, the figure is 151 to 152 °C; as for `Cc1ccccc1N=NC1=NCCS1`, 79 to 80 °C.
As for `O=C(O)c1ccc(=O)n(Cc2ccc(-c3ccccc3)cc2)c1`, the figure is 245 to 250 °C; as for `COC(=O)NNC(=S)Cc1ccc(Cl)cc1`, 148 °C.
Turning to `C=CCOC(=O)c1ccc(NC(C)=O)cc1O`, the melting point fell in the range of 156 to 158 °C.
For `CCC(C)(C)c1ccc(OCCCNC(=O)c2cc(OCCS(=O)(=O)CC)c3ccccc3c2O)c(C(C)(C)CC)c1` the value was 155 to 157 °C; for `CC(C)CNC(=O)C=CCBr`, 94 to 95 °C; for `CC(=O)OCC1OC(OCC(C)=CCN2C(=O)c3ccccc3C2=O)C(OC(C)=O)C(OC(C)=O)C1OC(C)=O` (stereo not given), 104 to 105 °C.
As for `CCCCc1nn(-c2cc(NC(C)=O)ccc2Cl)c(=O)n1Cc1ccc(-c2cc(CCC)ccc2S(=O)(=O)NC(=O)c2ccccc2Cl)cc1F`, the figure is 144 to 146 °C; as for `CCOC(=O)C1Cc2c(ccc(OC)c2OCc2ccccc2)CN1C(=O)C(c1ccccc1)c1ccccc1` (racemic), 111 to 113 °C; as for `N#Cc1cc(N)n(-c2c(Cl)cc(C(F)(F)F)cc2Cl)c1`, 176 °C.
As for `CC1(CF)C=C(Br)c2cc([N+](=O)[O-])ccc2O1` (stereo not given), the figure is 116 to 117 °C.
For `CN1CCCCCCC1=NC(=S)Nc1ccccc1`, the melting point fell in the range of 123 to 125 °C.
As for `CCc1ccccc1NC=C1C(=O)N(c2ccc(C(N)=O)cc2)N=C1C`, the melting point came out at 225 °C.
For `COC(=O)C1=C(C(F)F)NC(C)=C(C(=O)OC(C)C)C1c1cccc([N+](=O)[O-])c1` (stereo not given) the value was 140 to 141 °C.
`CCCCOC1=C(c2ccccc2)C(CCC(=O)O)OC1=O` (stereo not given): the melting point was in the range of 94 to 96 °C.
Compound `Cc1nn(-c2ccccn2)c2ncc(C(=O)O)c(O)c12` had a melting point of 248 to 251 °C.
For `Cc1cc(-c2cc3c(cc2F)c(=O)c(C(=O)O)cn3C2CC2)cc(C)n1` the value was 300 to 302 °C.
The compound `COc1ccc(-c2[nH]nc3c2C(=O)c2c(NC(=O)Cc4ccc(Cl)cc4Cl)cccc2-3)cc1` registered a melting point of 286 °C.
For `COc1ccc(C(=O)C=Cc2ccc(OCc3ccccc3)cc2)c(O)c1CC=C(C)C` the value was 70 to 71 °C; for `NC(=NCC(F)(F)F)Nc1ccnc(CCCO)n1`, 136 to 138 °C.
For `CCCc1c(OCCCCCOc2ccc3c(c2CCC)OC(C(=O)O)CC3O)ccc(C(C)=O)c1O` (stereo not given) the value was 95.5 to 97.5 °C.
As for `CC(C)(C)c1ccc(-c2nc(N)sc2-c2ccncc2)cc1`, the figure is 254 to 257 °C.
